Laboratory results taken from patent publication US11077100B2, “Tetrahydroquinoline derivatives as P2X7 receptor antagonists” (RaQualia Pharma Inc., priority 2017, dated 2021).

Key:
rat P2X7 = rat P2X7 (Rattus norvegicus (Rat), UniProt Q64663); experiment: Rat P2X7 functional assay (Ca2+ influx, Fluo-4, FDSS); format: cell-based; conditions: HEK293 cells stably expressing rat P2X7; BzATP final 10 microM; 7-point dose-response; read-out: Antagonistic activities with respect to the rat P2X7 receptor (IC50)
Outline: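 HEK293 cells stably expressing rat P2X7 (5,000/well, plated 24 h before) loaded with Fluo-4; compounds preincubated 10 min at room temperature, then Ca2+ rise after 10 microM BzATP (final) read on FDSS (480/540 nm). IC50 from 7-point curves, duplicate wells.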

human P2X7 = human P2X7 (Homo sapiens (Human), UniProt Q99572); experiment: Human P2X7 functional assay (Ca2+ influx, Fluo-4, FDSS); format: cell-based; conditions: antagonistic activity with respect to the human P2X7 receptor; BzATP final concentration 80 microM
Outline: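 HEK293 cells stably expressing C-terminally FLAG-tagged human P2X7, loaded with Fluo-4. Compounds were preincubated for 10 min at room temperature, then 80 μM BzATP (final) was added and Ca2+ fluorescence read at 540 nm (480 nm excitation) by FDSS. IC50 values come from 7-point curves, duplicate wells.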

human P2X7, sequence (Q99572 whole entry): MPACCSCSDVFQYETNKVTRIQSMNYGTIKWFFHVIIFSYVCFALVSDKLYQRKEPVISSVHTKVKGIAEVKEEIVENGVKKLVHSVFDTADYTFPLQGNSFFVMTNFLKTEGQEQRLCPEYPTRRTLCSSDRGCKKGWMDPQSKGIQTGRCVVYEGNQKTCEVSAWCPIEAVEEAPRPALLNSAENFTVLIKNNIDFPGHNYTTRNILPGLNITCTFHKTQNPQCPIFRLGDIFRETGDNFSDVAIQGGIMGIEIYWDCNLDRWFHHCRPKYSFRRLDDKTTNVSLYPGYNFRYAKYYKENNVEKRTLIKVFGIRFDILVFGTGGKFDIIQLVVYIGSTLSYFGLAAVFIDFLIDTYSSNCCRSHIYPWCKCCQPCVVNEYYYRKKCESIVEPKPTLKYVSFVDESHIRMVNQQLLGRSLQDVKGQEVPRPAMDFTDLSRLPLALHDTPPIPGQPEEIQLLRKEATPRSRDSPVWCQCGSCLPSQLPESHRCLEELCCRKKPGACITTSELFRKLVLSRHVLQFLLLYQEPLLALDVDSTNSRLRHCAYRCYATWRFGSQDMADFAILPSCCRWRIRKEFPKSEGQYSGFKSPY
rat P2X7, sequence (Q64663 whole entry): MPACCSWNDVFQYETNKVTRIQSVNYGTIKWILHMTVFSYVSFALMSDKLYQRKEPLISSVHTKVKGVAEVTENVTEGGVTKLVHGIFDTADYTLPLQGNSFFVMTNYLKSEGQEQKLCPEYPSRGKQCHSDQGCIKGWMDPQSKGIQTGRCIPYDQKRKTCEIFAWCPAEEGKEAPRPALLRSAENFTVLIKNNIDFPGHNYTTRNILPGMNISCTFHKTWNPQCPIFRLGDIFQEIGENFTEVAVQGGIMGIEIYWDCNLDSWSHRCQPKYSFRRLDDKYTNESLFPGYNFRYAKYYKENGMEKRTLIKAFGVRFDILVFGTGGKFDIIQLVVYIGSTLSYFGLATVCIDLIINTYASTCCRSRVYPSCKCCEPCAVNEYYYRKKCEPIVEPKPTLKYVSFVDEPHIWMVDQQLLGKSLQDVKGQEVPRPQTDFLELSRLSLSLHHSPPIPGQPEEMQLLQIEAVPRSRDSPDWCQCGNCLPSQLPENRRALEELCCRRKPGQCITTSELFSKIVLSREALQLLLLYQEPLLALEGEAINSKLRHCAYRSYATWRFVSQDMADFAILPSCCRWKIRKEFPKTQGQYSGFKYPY

Row | IC50 (rat P2X7) | IC50 (human P2X7) | SMILES
1 | < 1000 nM | < 50 nM | C[C@]1(O)CC[C@@](F)(C(=O)NCc2ccc(Cl)cc2F)c2cccnc21 [Example 264, (5S,8S)-N-(4-chloro-2-fluorobenzyl)-5-fluoro-8-hydroxy-8-methyl-5,6,7,8-tetrahydroquinoline-5-carboxamide]
2 | < 1000 nM | < 50 nM | C[C@@H](NC(=O)[C@]1(F)CC[C@](C)(O)c2ncccc21)c1ccc(F)cc1Cl [Example 270, (5S,8S)-N-((R)-1-(2-chloro-4-fluorophenyl)ethyl)-5-fluoro-8-hydroxy-8-methyl-5,6,7,8-tetrahydroquinoline-5-carboxamide]
3 | < 1000 nM | < 50 nM | CN(CCO)C[C@]1(O)CC[C@@](F)(C(=O)NCc2ccc(Cl)cc2Cl)c2cccnc21 [Example 277, (5S,8R)-N-(2,4-dichlorobenzyl)-5-fluoro-8-hydroxy-8-(((2-hydroxyethyl) (methyl)amino)methyl)-5,6,7,8-tetrahydroquinoline-5-carboxamide]
4 | < 1000 nM | < 50 nM | O=C(NCc1ccc(Cl)cc1Cl)[C@@]1(F)CC[C@](O)(CN2CC(O)C2)c2ncccc21 [Example 279, (5R,8S)-N-(2,4-dichlorobenzyl)-5-fluoro-8-hydroxy-8-((3-hydroxyazetidin-1-yl)methyl)-5,6,7,8-tetrahydroquinoline-5-carboxamide]
5 | < 1000 nM | < 50 nM | N#CC[C@]1(O)CC[C@@](F)(C(=O)NCc2ccc(Cl)cc2Cl)c2cccnc21 [Example 280, (5S,8R)-8-(cyanomethyl)-N-(2,4-dichlorobenzyl)-5-fluoro-8-hydroxy-5,6,7,8-tetrahydroquinoline-5-carboxamide]
6 | < 1000 nM | < 50 nM | N#CC[C@]1(O)CC[C@@](F)(C(=O)NCc2c(Cl)cc(Cl)cc2CO)c2cccnc21 [Example 283]
7 | < 1000 nM | < 50 nM | O=C(NCc1ccc(Cl)cc1Cl)[C@]1(F)CC[C@@](O)(CF)c2ncccc21 [Example 285, (5S,8S)-N-(2,4-dichlorobenzyl)-5-fluoro-8-(fluoromethyl)-8-hydroxy-5,6,7,8-tetrahydroquinoline-5-carboxamide]
8 | < 1000 nM | < 50 nM | O=C(NCc1ccc(F)cc1Cl)[C@]1(F)CC[C@@](O)(CF)c2ncccc21 [Example 286, (5S,8S)-N-(2-chloro-4-fluorobenzyl)-5-fluoro-8-(fluoromethyl)-8-hydroxy-5,6,7,8-tetrahydroquinoline-5-carboxamide]
9 | < 1000 nM | < 50 nM | CSC[C@]1(O)CC[C@@](F)(C(=O)NCc2ccc(F)cc2Cl)c2cccnc21 [Example 288, (5S,8S)-N-(2-chloro-4-fluorobenzyl)-5-fluoro-8-hydroxy-8-((methylthio)methyl)-5,6,7,8-tetrahydroquinoline-5-carboxamide]
10 | < 1000 nM | < 50 nM | O=C(NCc1ccc(F)cc1Cl)[C@]1(F)CC[C@@](O)(CSCCO)c2ncccc21 [Example 289, (5S,8S)-N-(2-chloro-4-fluorobenzyl)-5-fluoro-8-hydroxy-8-(((2-hydroxyethyl)thio)methyl)-5,6,7,8-tetrahydroquinoline-5-carboxamide]
11 | < 1000 nM | 101 to 300 nM | O=C1NC[C@]2(CC[C@@](F)(C(=O)NCc3ccc(Cl)cc3Cl)c3cccnc32)O1 [Example 291, (5S,5′S)-N-(2,4-dichlorobenzyl)-5′-fluoro-2-oxo-6′,7′-dihydro-5′H-spiro [oxazolidine-5,8′-quinoline]-5′-carboxamide]
12 | < 1000 nM | 50 to 100 nM | O=C1NC[C@@]2(CC[C@@](F)(C(=O)NCc3ccc(Cl)cc3Cl)c3cccnc32)O1 [Example 292, (5R,5′S)-N-(2,4-dichlorobenzyl)-5′-fluoro-2-oxo-6′,7′-dihydro-5′H-spiro [oxazolidine-5,8′-quinoline]-5′-carboxamide]
13 | < 1000 nM | 50 to 100 nM | O=C1CO[C@@]2(CC[C@@](F)(C(=O)NCc3ccc(Cl)cc3Cl)c3cccnc32)CN1 [Example 294, (2S,5′S)-N-(2,4-dichlorobenzyl)-5′-fluoro-5-oxo-6′,7′-dihydro-5′H-spiro [morpholine-2,8′-quinoline]-5′-carboxamide]
14 | < 1000 nM | 50 to 100 nM | C[S+]([O-])C[C@]1(O)CC[C@@](F)(C(=O)NCc2ccc(F)cc2Cl)c2cccnc21 (stereo partly drawn) [Example 296, (5S,8S)-N-(2-chloro-4-fluorobenzyl)-5-fluoro-hydroxy-8-((methylsulfinyl)methyl)-5,6,7,8-tetrahydroquinoline-5-carboxamide]

The remaining lines, values behind:

Row | SMILES | IC50 (rat P2X7) | IC50 (human P2X7)
15 | C[C@]1(O)CC[C@@](F)(C(=O)NCc2ccc(F)cc2Cl)c2cccnc21 [Example 259, (5S,8S)-N-(2-chloro-4-fluorobenzyl)-5-fluoro-8-hydroxy-8-methyl-5,6,7,8-tetrahydroquinoline-5-carboxamide] | < 1000 nM | < 50 nM
16 | C[C@@]1(O)CC[C@@](F)(C(=O)NCc2ccc(F)cc2Cl)c2cccnc21 [Example 260, (5S,8R)-N-(2-chloro-4-fluorobenzyl)-5-fluoro-8-hydroxy-8-methyl-5,6,7,8-tetrahydroquinoline-5-carboxamide] | < 1000 nM | 301 to 1000 nM
17 | C[C@]1(O)CC[C@@](F)(C(=O)NCc2c(Cl)cc(Cl)cc2CO)c2cccnc21 [Example 261, (5S,8S)-N-(2,4-dichloro-6-(hydroxymethyl)benzyl)-5-fluoro-8-hydroxy-8-methyl-5,6,7,8-tetrahydroquinoline-5-carboxamide] | < 1000 nM | < 50 nM
18 | C[C@]1(O)CC[C@@](F)(C(=O)NCc2c(Cl)cc(F)cc2CO)c2cccnc21 [Example 262, (5S,8S)-N-(2-chloro-4-fluoro-6-(hydroxymethyl)benzyl)-5-fluoro-8-hydroxy-8-methyl-5,6,7,8-tetrahydroquinoline-5-carboxamide] | < 1000 nM | < 50 nM
19 | C[C@]1(O)CC[C@@](F)(C(=O)NCc2ccc(F)cc2F)c2cccnc21 [Example 263, (5S,8S)-N-(2,4-difluorobenzyl)-5-fluoro-8-hydroxy-8-methyl-5,6,7,8-tetrahydroquinoline-5-carboxamide] | < 1000 nM | < 50 nM
20 | C[C@]1(O)CC[C@@](F)(C(=O)NCc2ccc(F)c(Cl)c2F)c2cccnc21 [Example 268, (5S,8S)-N-(3-chloro-2,4-difluorobenzyl)-5-fluoro-8-hydroxy-8-methyl-5,6,7,8-tetrahydroquinoline-5-carboxamide] | < 1000 nM | < 50 nM
21 | C[C@]1(O)CC[C@@](F)(C(=O)NCc2c(F)cc(Cl)cc2F)c2cccnc21 [Example 269, (5S,8S)-N-(4-chloro-2,6-difluorobenzyl)-5-fluoro-8-hydroxy-8-methyl-5,6,7,8-tetrahydroquinoline-5-carboxamide] | < 1000 nM | < 50 nM
22 | C[C@]1(O)CC[C@@](F)(C(=O)NCc2ncc(Cl)cc2Cl)c2cccnc21 [Example 272, (5S,8S)-N-((3,5-dichloropyridin-2-yl)methyl)-5-fluoro-8-hydroxy-8-methyl-5,6,7,8-tetrahydroquinoline-5-carboxamide] | < 1000 nM | < 50 nM
23 | C[C@]1(O)CC[C@@](F)(C(=O)NCC2(N3CCOCC3)CCCCC2)c2cccnc21 [Example 274, (5S,8S)-5-fluoro-8-hydroxy-8-methyl-N-((1-morpholinocyclohexyl)methyl)-5,6,7,8-tetrahydroquinoline-5-carboxamide] | < 1000 nM | < 50 nM
24 | N#CC[C@]1(O)CC[C@@](F)(C(=O)NCc2ccc(F)cc2Cl)c2cccnc21 [Example 281, (5S,8R)-N-(2-chloro-4-fluorobenzyl)-8-(cyanomethyl)-5-fluoro-8-hydroxy-5,6,7,8-tetrahydroquinoline-5-carboxamide] | < 1000 nM | 301 to 1000 nM
25 | N#CC[C@@]1(O)CC[C@@](F)(C(=O)NCc2ccc(F)cc2Cl)c2cccnc21 [Example 282, (5S,8S)-N-(2-chloro-4-fluorobenzyl)-8-(cyanomethyl)-5-fluoro-8-hydroxy-5,6,7,8-tetrahydroquinoline-5-carboxamide] | < 1000 nM | < 50 nM
26 | N#CC[C@]1(O)CC[C@@](F)(C(=O)NCc2c(Cl)cc(F)cc2CO)c2cccnc21 [Example 284, (5S,8R)-N-(2-chloro-4-fluoro-6-(hydroxymethyl)benzyl)-8-(cyanomethyl)-5-fluoro-8-hydroxy-5,6,7,8-tetrahydroquinoline-5-carboxamide] | < 1000 nM | < 50 nM
27 | CSC[C@]1(O)CC[C@@](F)(C(=O)NCc2ccc(Cl)cc2Cl)c2cccnc21 [Example 287, (5S,8S)-N-(2,4-dichlorobenzyl)-5-fluoro-8-hydroxy-8 ((methylthio)methyl)-5,6,7,8-tetrahydroquinoline-5-carboxamide] | < 1000 nM | < 50 nM
28 | CN1CCO[C@]2(CC[C@@](F)(C(=O)NCc3ccc(Cl)cc3Cl)c3cccnc32)C1 [Example 290, (2R,5′S)—N-(2,4-dichlorobenzyl)-5′-fluoro-4-methyl-6′,7′-dihydro-5′H-spiro[morpholine-2,8′-quinoline]-5′-carboxamide] | < 1000 nM | < 50 nM
29 | O=C1CO[C@]2(CC[C@@](F)(C(=O)NCc3ccc(Cl)cc3Cl)c3cccnc32)CN1 [Example 295, (2R,5′S)-N-(2,4-dichlorobenzyl)-5′-fluoro-5-oxo-6′,7′-dihydro-5′H-spiro [morpholine-2,8′-quinoline]-5′-carboxamide] | < 1000 nM | < 50 nM
